We go through 30 compounds from the supplement of paper PMC11616607.

The first assay has as its system OV90. The assay is described as follows: drug sensitivity score (DSS) from 5-point dose-response viability curve (DSS (area-under-curve based score)); higher = more sensitive (stronger growth inhibition or killing); extreme values may be limits of the assay. To be noted: exposure time: 72 h; concentration range: 5 concentrations over 10,000-fold range. The gist of the method:
(§1)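 Viability of ovarian cancer and normal ovarian cell lines was read by CellTiter-Glo luminescence after 3 days at 37°C and 5% CO2 in 384-well plates holding 1,500 cells per well. Drugs had been dispensed in DMSO or water with an Echo 550 at five concentrations over a 10,000-fold range. Using Breeze software, a drug sensitivity score was assigned per cell line and drug, higher scores meaning more sensitive, and zero means no response.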
Take `COc1ccc(-c2ccc3ncc4c(c3c2)n(-c2ccc(N3CCNCC3)c(C(F)(F)F)c2)c(=O)n4C)cn1` [NVP-BGT226]: the drug sensitivity score amounted to 17.2.
For `Cc1ccc(C(=O)Nc2cccc(C(F)(F)F)c2)cc1Nc1nc(-c2cccnc2)nc2c1cnn2C` [NVP-BHG712], the drug sensitivity score was 0.1.
Same read-out and setting: in the case of `COc1cc2c(cc1OC(C)C)[C@H](c1ccc(Cl)cc1)N(c1ccc(N(C)C[C@H]3CC[C@H](N4CCN(C)C(=O)C4)CC3)cc1)C(=O)C2` [NVP-CGM097] it was 5.4; in that of `CN[C@@H](C)C(=O)N[C@H](C(=O)N1CCC[C@H]1c1nc(C(=O)c2ccc(F)cc2)cs1)C1CCCCC1` [NVP-LCL161], 5; in that of `Cn1c(Nc2ccc(C(F)(F)F)cc2)nc2cc(Oc3ccnc(-c4ncc(C(F)(F)F)[nH]4)c3)ccc21` [NVP-RAF265], 4.2.
With `CC(=O)c1cc2c(o1)C(=O)c1ccccc1C2=O` [Napabucasin], the drug sensitivity score came out at 17.9.
`CC1(C)CCC(c2ccc(Cl)cc2)=C(CN2CCN(c3ccc(C(=O)NS(=O)(=O)c4ccc(N[C@H](CCN5CCOCC5)CSc5ccccc5)c(S(=O)(=O)C(F)(F)F)c4)cc3)CC2)C1` [Navitoclax] gave a drug sensitivity score of 10.2.
In the case of `CN1C(=O)N[C@H](Cc2c[nH]c3c(Cl)cccc23)C1=O` [Necrostatin 2], the drug sensitivity score is 0.
Still for that read-out and setting: in the case of `O=c1ncn2nc(Sc3ccc(F)cc3F)ccc2c1-c1c(Cl)cccc1Cl` [Neflamapimod] it was 0.4; in that of `COc1nc(N)nc2c1ncn2[C@@H]1O[C@H](CO)[C@@H](O)[C@@H]1O` [Nelarabine], 1.7; in that of `CCOc1cc2ncc(C#N)c(Nc3ccc(OCc4ccccn4)c(Cl)c3)c2cc1NC(=O)/C=C/CN(C)C` [Neratinib], 0.
Turning to `Cc1cn(-c2cc(NC(=O)c3ccc(C)c(Nc4nccc(-c5cccnc5)n4)c3)cc(C(F)(F)F)c2)cn1` [Nilotinib], the drug sensitivity score amounted to 0.
Consider `CC1(C)NC(=O)N(c2ccc([N+](=O)[O-])c(C(F)(F)F)c2)C1=O` [Nilutamide], for which the drug sensitivity score was determined as 0.
The same measure, in the same setting: in the case of `COC(=O)c1ccc2c(c1)NC(=O)/C2=C(\Nc1ccc(N(C)C(=O)CN2CCN(C)CC2)cc1)c1ccccc1` [Nintedanib] it was 3.5; in that of `NC(=O)c1cccc2cn(-c3ccc([C@@H]4CCCNC4)cc3)nc12` [Niraparib], 1.7.

The subject of the next assay is OVCAR4. The assay is described as above. The note with it: exposure time: 72 h; concentration range: 5 concentrations over 10,000-fold range. The method, boiled down:
as §1
With `C[C@H]1C[C@@H]2[C@H]([C@@H](O)C[C@@]3(C)[C@H]2CC[C@]3(O)C(=O)CO)[C@@]2(C)C=CC(=O)C=C12` [Methylprednisolone], the drug sensitivity score worked out at 0.
Regarding `CO[C@@H]1[C@H](N(C)C(=O)c2ccccc2)C[C@H]2O[C@]1(C)n1c3ccccc3c3c4c(c5c6ccccc6n2c5c31)C(=O)NC4` [Midostaurin], the drug sensitivity score amounted to 8.5.
Same read-out and setting: in the case of `CNC(=O)c1nn(C)c2c1C(C)(C)Cc1cnc(Nc3ccc(N4CCN(C)CC4)cc3)nc1-2` [Milciclib] it was 6.4; in that of `CCCCCCCCCCCCCCCCOP(=O)([O-])OCC[N+](C)(C)C` [Miltefosine], 3.5; in that of `CO[C@@]12[C@H](COC(N)=O)C3=C(C(=O)C(C)=C(N)C3=O)N1C[C@@H]1N[C@@H]12` [Mitomycin C], 0.
Still for that read-out and setting: in the case of `Clc1ccc(C(c2ccccc2Cl)C(Cl)Cl)cc1` (stereo not given) [Mitotane] it was 0.3; in that of `O=C1c2c(O)ccc(O)c2C(=O)c2c(NCCNCCO)ccc(NCCNCCO)c21` [Mitoxantrone], 4.2.
On to `CCS(=O)(=O)Nc1ccc(Oc2ccc(F)cc2F)c(-c2cn(C)c(=O)c3[nH]ccc23)c1` [Mivebresib], for which the drug sensitivity score was 18.3.
On the same count and under the same terms, in the case of `Nc1ccccc1NC(=O)c1ccc(CNc2nccc(-c3cccnc3)n2)cc1` [Mocetinostat] it was 6.8; in that of `CCNC(=O)C[C@@H]1N=C(c2ccc(Cl)cc2)c2cc(OC)ccc2-n2c(C)nnc21` [Molibresib], 4.3; in that of `N#CCNC(=O)c1ccc(-c2ccnc(Nc3ccc(N4CCOCC4)cc3)n2)cc1` [Momelotinib], 0.
In the case of `CC1(C)CNc2cc(NC(=O)c3cccnc3NCc3ccncc3)ccc21` [Motesanib], the drug sensitivity score is 0.
Compound `CCCN(CCC)C(=O)C1=Cc2ccc(-c3ccc(C(=O)N4CCCC4)cc3)cc2N=C(N)C1` [Motolimod] displayed a drug sensitivity score of 0.9.
On the same count and under the same terms, in the case of `FC(F)(F)c1ccc(/C=C/c2nc(COc3ccc(CCCCn4ccnn4)cc3)co2)cc1` [Mubritinib] it was 2.2; in that of `Cc1cc(OCc2nnc(SC3CCCC3)n2-c2cccnc2)ccc1-c1ccc(S(C)(=O)=O)cc1` [NMS-873], 7.9.
In the case of `COc1ccc(-c2ccc3ncc4c(c3c2)n(-c2ccc(N3CCNCC3)c(C(F)(F)F)c2)c(=O)n4C)cn1` [NVP-BGT226], the drug sensitivity score came to 13.6.
The compound `Cc1ccc(C(=O)Nc2cccc(C(F)(F)F)c2)cc1Nc1nc(-c2cccnc2)nc2c1cnn2C` [NVP-BHG712] came in with a drug sensitivity score of 1.4.
`COc1cc2c(cc1OC(C)C)[C@H](c1ccc(Cl)cc1)N(c1ccc(N(C)C[C@H]3CC[C@H](N4CCN(C)C(=O)C4)CC3)cc1)C(=O)C2` [NVP-CGM097]: the drug sensitivity score was found to be 5.
In turn, `CN[C@@H](C)C(=O)N[C@H](C(=O)N1CCC[C@H]1c1nc(C(=O)c2ccc(F)cc2)cs1)C1CCCCC1` [NVP-LCL161] gave a drug sensitivity score of 16.4.
Still for that read-out and setting: in the case of `Cn1c(Nc2ccc(C(F)(F)F)cc2)nc2cc(Oc3ccnc(-c4ncc(C(F)(F)F)[nH]4)c3)ccc21` [NVP-RAF265] it was 0.3; in that of `CC(=O)c1cc2c(o1)C(=O)c1ccccc1C2=O` [Napabucasin], 19; in that of `CC1(C)CCC(c2ccc(Cl)cc2)=C(CN2CCN(c3ccc(C(=O)NS(=O)(=O)c4ccc(N[C@H](CCN5CCOCC5)CSc5ccccc5)c(S(=O)(=O)C(F)(F)F)c4)cc3)CC2)C1` [Navitoclax], 2.
The same measure, in the same setting: in the case of `CN1C(=O)N[C@H](Cc2c[nH]c3c(Cl)cccc23)C1=O` [Necrostatin 2] it was 0; in that of `O=c1ncn2nc(Sc3ccc(F)cc3F)ccc2c1-c1c(Cl)cccc1Cl` [Neflamapimod], 0.4; in that of `COc1nc(N)nc2c1ncn2[C@@H]1O[C@H](CO)[C@@H](O)[C@@H]1O` [Nelarabine], 0.
In the case of `CCOc1cc2ncc(C#N)c(Nc3ccc(OCc4ccccn4)c(Cl)c3)c2cc1NC(=O)/C=C/CN(C)C` [Neratinib], the drug sensitivity score was determined as 0.6.
`Cc1cn(-c2cc(NC(=O)c3ccc(C)c(Nc4nccc(-c5cccnc5)n4)c3)cc(C(F)(F)F)c2)cn1` [Nilotinib] yielded a drug sensitivity score of 0.9.
As for `CC1(C)NC(=O)N(c2ccc([N+](=O)[O-])c(C(F)(F)F)c2)C1=O` [Nilutamide], the drug sensitivity score was 0.
The same measure, in the same setting: in the case of `COC(=O)c1ccc2c(c1)NC(=O)/C2=C(\Nc1ccc(N(C)C(=O)CN2CCN(C)CC2)cc1)c1ccccc1` [Nintedanib] it was 3.6.
`NC(=O)c1cccc2cn(-c3ccc([C@@H]4CCCNC4)cc3)nc12` [Niraparib] gave a drug sensitivity score of 0.
